In US10912776B2, “Methods of treating cancer” (Corvus Pharmaceuticals, Inc., priority 2015, dated 2021):
Several values for one entry are separate records, joined by “and”; a condition that tells them apart may be missing. Equal entries are not always repeated. Entries after “also recorded” stand apart in the source; their conditions may differ.

Experiments:
[1] = system: MC38 colon cancer cells; assay: Syngeneic MC38 mouse colon carcinoma model, CPI-444 dose response and rechallenge; format: in vivo
Excerpt: 100% protected from rechallenge. […] These mice were challenged with the new engraftment of MC38 tumor cells.
MC38 colon cancer cells were subcutaneously injected onto the backs of syngeneic C57BL/6 mice.

[2] = target: T1, A2AR (Homo sapiens, UniProt P29274); assay: pERK levels in human CD4+ T cells after TCR cross-linking; settings: NECA 1 μM
[3] = target: T1, A2AR; assay: IL-2 and IFNγ secretion from activated primary human PBMCs (AlphaLISA); format: cell-based; set-up: Blood samples were derived from patients and processed using the following protocol; endogenous in cells; host or cells: whole blood B cells and T cells of treated subjects; settings: CPI-444 1 μM; NECA or CGS21680 1 μM; anti-CD3/anti-CD28 48 hours
Procedure: Purified anti-CD3 and anti-CD28 monoclonal antibodies (1 ug/ml) were then added to activate T cells for 48 hours.
Purified anti-CD3 and anti-CD28 monoclonal antibodies (1 ug/ml) were then added to activate T cells for 48 hours. In this study, AlphaLISA assays (PerkinElmer) analyzed on an EnVision MultiLabel Reader were used to measure cytokine release according to the manufacturer's instructions.

[4] = system: CT26 cells; assay: XTT cell viability/proliferation, CT26; format: cell-based, mouse; settings: 10 µM to 1 pM, 24 hours
Procedure: (§1) Staurosporine, a well-characterized inducer of apoptosis, was included as a positive control for cell death. Cell viability/proliferation was measured by XTT. In this assay, XTT salts are cleaved by metabolically active (viable) cells, thereby producing a colorimetric change in the culture media that can be quantified by measuring absorbance at 405 nm and 620 nm on a spectrophotometer.

[5] = system: EL4 cells; assay: Syngeneic EL4 mouse lymphoma model; format: in vivo; settings: 10, 30, 100 mg/kg daily oral gavage
Procedure: Syngeneic C57BL/6 female mice (8-10 weeks old) were injected (via subcutaneous route) with EL4 cells.

[6] = system: MC38 cells; assay: XTT cell viability/proliferation, MC38; format: cell-based, mouse; settings: 10 µM to 1 pM, 24 hours
Procedure: as §1

[7] = system: EL4 cells; assay: XTT cell viability/proliferation, EL4; format: cell-based, mouse; settings: 10 µM to 1 pM, 24 hours
Procedure: as §1

[8] = system: MC38 mouse colon cancer cells; assay: Syngeneic MC38 mouse colon cancer model, CPI-444 in combination with anti-PD-L1; format: in vivo
Excerpt: Combo eliminates tumors in 50% of mice. […] Treatment continued for 12 days.
FIGS. 16A and 16B: MC38 Model: Established tumors eliminated in 8/9 mice.
Treatment continued for more than 9 days (FIG. 23C). […] T cell depletion was verified by flow analysis. FIGS. 23A and 23B show the tumor volume at different time points since engraftment for the dosing cohorts.
Treatment continued for 12 days. […] T cell depletion was verified by flow analysis. FIGS. 23A and 23B show tumor volume at different time points since engraftment for the dosing cohorts.
Treatment continued for more than 9 days. […] T cell depletion was verified by flow analysis. FIGS. 23A and 23B show tumor volume at different time points since engraftment for the dosing cohorts.

[9] = Phase 1/1b clinical trial in solid tumor patients (safety, efficacy, blood biomarkers); format: in vivo, human
Procedure: FIGS. 19A and 19B: T Cell activation in treated subjects. Whole blood was collected on Day 1 of Cycles 1, 2, 4 & 8 for flow analysis. The percentage of CD4 and CD8 T cells that stained PD-1+(FIG. 19A) or CD45RA− (memory/effector cells) (FIG. 19B) is shown. Each line represents a single subject across time.
Whole blood was collected on Day 1 of Cycles 1 and 2 and PBMCs were prepared. DNA was extracted from PBMCs and sequenced for TCRβ repertoire by Adaptive Biotechnologies. […] Morisita Index measures T cell repertoir similarity comparing pre- and post-dose PBMCs. A Morisita Index of 1 is equal to identity, indicating no longitudinal change. Morisita Index distribution in single agent and combination cohorts (FIG. 20B). Graph showing Morisita Index by cohort (FIG. 20C). […] Changes were driven predominantly by TCR clone expansion (clonality).
After a dose selection stage, pts are treated in 10 disease specific cohorts (5 single agent and 5 combination). Cohorts may be expanded based on response criteria: complete response, partial response or stable disease (SD). Biomarkers are evaluated including immune cells by flow cytometry in peripheral blood and pre/post treatment tumor biopsies as well as adenosine pathway modulation by immunohistochemistry and gene expression.
In step 1 of the trial, patients were dosed with either 100 mg BID for 14 days out of a 28 day cycle, 100 mg BID for 28 days, 200 mg QD for 14 days or 50 mg or 100 mg BID for 14 days in combination with […]® (840 mg Q2W). Pharmacodynamic analysis was conducted on peripheral blood cells to inform dose selection. Step 1 of Phase1/1b was fully enrolled (n=48) and dose was selected (100 mg BID) based on pharmacodynamic analysis of A2AR pathway.

[10] = target: T1, A2AR; assay: NECA-induced pCREB in whole blood B cells and T cells of treated subjects (flow cytometry); format: in vivo; set-up: Blood samples were derived from patients and processed using the following protocol; endogenous in cells; host or cells: whole blood B cells and T cells of treated subjects
Procedure: Control samples were treated with phorbol myristate acetate (PMA).
[…] control samples were treated with phorbol myristate acetate (PMA).
On day 14, blood was collected prior to dosing (0 hr, trough) and for a time course post-dose (1.5, 3, 5.5, 8 hr) (FIGS. 26-28). The level of signaling was determined and the percent inhibition on Day 14 compared to Day 1 pre-treatment was calculated.

[11] = non-oncology indications; 75 subjects; cited from earlier work
[12] = target: T1, A2AR; assay: cAMP production in primary human T cells stimulated with NECA (LANCE Ultra cAMP); format: cell-based; set-up: Blood samples were derived from patients and processed using the following protocol; endogenous in cells; host or cells: whole blood B cells and T cells of treated subjects
Procedure: Adenosine signaling through A2AR leads to increases in the levels of cAMP.
T cells were isolated from human PBMC by negative selection and activated via CD3/CD28 stimulation for 48 hours to induce A2AR expression. Stimulated T cells were then “rested” for 24 hours by removal of CD3/CD28 stimulation in order to minimize background levels of cAMP.

[13] = target: T1, A2AR; assay: NECA-induced phospho-CREB in fresh PBMCs (B cell population); settings: primarily B cell population
[14] = system: CT26 mouse colon cancer cells; settings: CPI-444 100 mg/kg oral; anti-PD-1 100 ug/mouse i.p.
Excerpt: CT26 mouse colon cancer cells were engrafted onto the back of syngeneic male Balb/c mice. […] Treatment continued for 12 days.

T1 sequence (P29274 whole entry): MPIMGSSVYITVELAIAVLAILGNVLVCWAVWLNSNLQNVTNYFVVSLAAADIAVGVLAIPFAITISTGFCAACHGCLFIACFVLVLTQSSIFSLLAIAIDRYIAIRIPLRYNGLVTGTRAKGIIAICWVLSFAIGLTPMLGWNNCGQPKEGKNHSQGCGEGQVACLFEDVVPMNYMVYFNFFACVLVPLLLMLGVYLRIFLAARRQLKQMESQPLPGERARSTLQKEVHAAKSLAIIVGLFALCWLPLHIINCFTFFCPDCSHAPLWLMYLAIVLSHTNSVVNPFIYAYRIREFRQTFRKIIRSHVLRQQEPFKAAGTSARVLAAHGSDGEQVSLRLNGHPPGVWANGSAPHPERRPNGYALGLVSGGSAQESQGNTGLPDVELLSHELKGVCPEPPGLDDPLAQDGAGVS

Cc1ccc(-c2nc(N)nc3c2nnn3Cc2cccc(COC3CCOC3)n2)o1 (stereo not drawn) [CPI-444]
tumor growth ([1]; 1 mg/kg daily oral gavage for 28 days): did not inhibit tumor growth | tumor growth ([1]; 10 mg/kg daily oral gavage for 28 days): significantly inhibits the growth; also recorded: significant inhibition of tumor growth | tumor growth ([1]; 100 mg/kg daily oral gavage for 28 days): significantly inhibits the growth; also recorded: significant inhibition of tumor growth | mice with tumors eliminated ([1]; CPI-444 dose response study): 30% | complete tumor regression ([1]; all cohorts (1, 10, 100 mg/kg)): complete tumor regression was observed in a subset of mice within all cohorts | tumor growth after rechallenge with MC38 cells ([1]; cured mice, no additional CPI-444 treatment): fully inhibited; also recorded: fully rejected in all 9 mice | inhibition of tumor growth (dose response) ([1]; daily CPI-444 1, 10, 100 mg/kg): dose-dependent inhibition of tumor growth; also recorded: Inhibits Growth of MC38 Tumors | mice protected from rechallenge ([1]; new engraftment of MC38 cells, no additional CPI-444 treatment): 100% | reoccurrence during additional 6 weeks monitoring ([1]; nine mice with complete tumor growth inhibition): No tumor growth was observed | pERK levels / ERK signaling in CD4+ T cells in the presence of NECA [2]: restored pERK levels in a dose-dependent manner; also recorded: Restores pERK | IFNγ secretion in presence of A2AR agonist [3]: restored IL-2 and IFNγ secretion back to levels observed in the absence of exogenous adenosine signaling | IL-2 secretion in presence of A2AR agonist [3]: restored IL-2 and IFNγ secretion back to levels observed in the absence of exogenous adenosine signaling | Specific Absorbance (XTT cell viability/proliferation) [4]: No significant decrease in the Specific Absorbance | tumor growth in regional lymph nodes (number and size of enlarged nodes) [5]: significant dose-dependent inhibition of tumor growth within regional lymph nodes; also recorded: significant, dose-dependent decrease in the number and size of enlarged regional lymph nodes; also recorded: Inhibits EL4 Tumor Growth In Regional Lymph Nodes | Specific Absorbance (XTT cell viability/proliferation) [6]: No significant decrease in the Specific Absorbance | Specific Absorbance (XTT cell viability/proliferation) [7]: No significant decrease in the Specific Absorbance | tumor eradication ([8]; CPI-444 100 mg/kg from Day 0, anti-PD-L1 200 ug/mouse): not completely eradicated | tumor growth ([8]; CPI-444 100 mg/kg oral from Day 0 for 12 days, anti-PD-L1 mAb 10F.9G2 200 ug/mouse i.p. days 7, 10, 13, 16): inhibition of tumor growth | dependence of efficacy on CD8+ T cells (T cell depletion with Anti-mCD4 / Anti-mCD8) ([8]; CPI-444 100 mg/kg, anti-PD-L1 200 ug/mouse): CD8+ T cells are required for the efficacy | mice with tumors eliminated ([8]; FIGS. 14A and 14B title): 30% | levels of immune checkpoints (GITR, OX40, LAG3) on tumor infiltrating lymphocytes and circulating T cells ([8]; mouse, in vivo): modulated | first efficacy assessment by CT ([9]; 2 pts (1 combination and 1 single agent), unconfirmed at 2 months): both demonstrated SD | tolerability / treatment related adverse events ([9]; 7 pts treated to date): well tolerated with no Grade 3 or 4 treatment related adverse events; also recorded: well tolerated | tumor response ([9]; Nivolumab-refractory lung cancer patient, 100 mg po BID×28 days/cycle): Tumor regression | TCR repertoire changes in peripheral blood ([9]; TCRβ sequencing of PBMCs, Day 1 of Cycles 1 and 2): TCR repertoire changes were induced; also recorded: robust changes in TCR repertoire in some patients | activated (PD-1+) CD8 cell frequencies in blood ([9]; flow analysis of whole blood): Increases in activated CD8 cell frequencies | memory (CD45RA−) cell frequencies in blood ([9]; flow analysis of whole blood): increases | T cell clone expansion / clonality ([9]; single agent CPI-444): Expansion of pre-existing and new T cell clones; also recorded: increased clonality | increase in PD-1+CD8+ cells in peripheral blood compared to baseline ([9]; the two pts with SD): 1.7 fold and 2.4 fold | inhibition of NECA-induced pCREB ([10]; 50 mg BID, Day 14): Variable inhibition; also recorded: not high enough for sustained inhibition | change in pCREB percent inhibition between trough (0 hr) and peak (3 hr) ([10]; 100 mg BID): Little fluctuation from trough to peak | patients with complete and sustained inhibition of NECA-induced pCREB ([10]; 100 mg BID single agent, Day 14): 7 of 7 | inhibition of pCREB / A2AR pathway ([10]; 100 mg BID, Day 14): high pCREB inhibition at trough and near complete inhibition after taking their morning dose; also recorded: highest pCREB inhibition at trough and near complete inhibition after taking their morning dose | inhibition of NECA-induced pCREB ([10]; 200 mg QD, Day 14): Variable inhibition; also recorded: achieves high peak levels but is not maintained at trough; also recorded: partial inhibition; also recorded: attenuated | CPI-444 plasma levels with near complete inhibition of pCREB in B cells ([10]; B cells): greater than 2,000 ng/mL | CPI-444 plasma levels with near complete inhibition of pCREB in CD4+ T cells ([10]; T cells): greater than 2,000 ng/mL | CPI-444 exposures at which the A2AR pathway is completely inhibited ([10]; plasma CPI-444): greater than 2000 ng/mL | tolerability [11]: well tolerated; also recorded: well tolerated with no significant adverse events noted | cAMP production upon NECA stimulation, CPI-444 dose dependence ([12]; FIG. 6): prevented cAMP production upon NECA stimulation in a dose-dependent manner; also recorded: Inhibits cAMP Production | production of cAMP upon NECA treatment ([12]; all levels of NECA tested (10^-5 to 10^-9 M), 10 minutes): completely blocked the production of cAMP | inhibition of NECA-induced CREB phosphorylation [13]: completely inhibited; also recorded: Prevents pCREB Induction in B Cells | tumor eradication / elimination [14]: not completely eradicated
